Source: article PMC3262104 (Journal of the American Chemical Society, 2011)
pIC50: −log10 of the molar value.

Tests used:
P-gp [1] = molecular target: T1, P-gp (Homo sapiens, UniProt P08183); experiment: Inhibition of P-gp-mediated efflux of calcein-AM in 12D7-MDR cells; type: cell-based
P-gp [2] = molecular target: T1, P-gp; experiment: [125I]IAAP photo-crosslinking competition, crude Sf9 membranes expressing P-gp; type: binding
P-gp [3] = conditions: brain; cited from earlier work
HIV-1LAI = experiment: Inhibition of HIV-1 replication, HIV p24 ELISA in infected 12D7 cells; type: cell-based; conditions: Human immunodeficiency virus 1, read-out: IC50 inhibition of HIV-1 replication

T1 sequence (P08183 whole entry): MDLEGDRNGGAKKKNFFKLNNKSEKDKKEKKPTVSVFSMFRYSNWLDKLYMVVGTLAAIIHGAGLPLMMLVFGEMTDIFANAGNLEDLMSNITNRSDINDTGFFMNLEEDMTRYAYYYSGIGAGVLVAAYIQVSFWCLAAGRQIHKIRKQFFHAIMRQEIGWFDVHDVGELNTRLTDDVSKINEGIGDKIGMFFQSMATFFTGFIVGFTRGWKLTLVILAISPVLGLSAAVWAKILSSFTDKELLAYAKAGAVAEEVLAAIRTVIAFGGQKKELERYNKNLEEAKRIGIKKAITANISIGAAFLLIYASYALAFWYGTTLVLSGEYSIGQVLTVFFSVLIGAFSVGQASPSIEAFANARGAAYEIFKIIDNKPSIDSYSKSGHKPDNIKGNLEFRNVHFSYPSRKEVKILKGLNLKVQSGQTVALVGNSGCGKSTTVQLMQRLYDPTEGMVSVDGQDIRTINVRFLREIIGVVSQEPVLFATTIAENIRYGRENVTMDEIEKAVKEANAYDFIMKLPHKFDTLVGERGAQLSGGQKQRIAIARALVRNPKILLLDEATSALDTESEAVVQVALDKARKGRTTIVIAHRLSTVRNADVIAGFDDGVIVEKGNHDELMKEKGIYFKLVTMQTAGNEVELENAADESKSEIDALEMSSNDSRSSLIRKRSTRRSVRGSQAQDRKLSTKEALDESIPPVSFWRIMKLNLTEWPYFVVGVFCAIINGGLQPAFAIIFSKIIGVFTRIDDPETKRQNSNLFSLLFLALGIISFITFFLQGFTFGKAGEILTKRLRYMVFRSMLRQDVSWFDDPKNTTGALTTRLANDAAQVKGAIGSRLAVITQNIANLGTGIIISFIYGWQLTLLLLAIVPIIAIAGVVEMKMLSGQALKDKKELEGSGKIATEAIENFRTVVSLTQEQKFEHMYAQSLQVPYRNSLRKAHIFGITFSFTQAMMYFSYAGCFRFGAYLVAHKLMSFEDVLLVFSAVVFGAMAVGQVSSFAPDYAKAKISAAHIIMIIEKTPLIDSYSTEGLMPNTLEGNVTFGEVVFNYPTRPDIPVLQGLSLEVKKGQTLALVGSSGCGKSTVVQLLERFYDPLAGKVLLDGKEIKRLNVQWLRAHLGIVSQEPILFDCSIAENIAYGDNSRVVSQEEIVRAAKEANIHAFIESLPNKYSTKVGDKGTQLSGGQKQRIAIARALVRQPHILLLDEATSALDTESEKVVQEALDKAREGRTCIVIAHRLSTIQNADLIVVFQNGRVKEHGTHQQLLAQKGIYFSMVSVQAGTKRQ

SMILES: Nc1nc(NC2CC2)c2ncn([C@H]3C=C[C@@H](CO)C3)c2n1 [abacavir]
- pIC50 (P-gp [1]): < 3.30
- Inhibition of P-gp mediated efflux of fluorescent substrates (P-gp [1]; 12D7-MDR cells, at a concentration of 500 µM): only minimally effective
- pIC50 (P-gp [2]): < 4.00
- Increased levels in the brains of dosed P-gp-null mice versus dosed wild-type mice (P-gp [3]): 20 fold
- pIC50 (HIV-1LAI): ~6.22
